Values quoted from earlier work, collected in the CATMoS acute toxicity set (Mansouri et al. 2021).
“And” between values parts separate entries of the source, which are not always exact repeats. Identical values can stand only once.

Assay: rat acute oral toxicity
Settings: in vivo
Source text: […]The data set underlying the modeling effort for this project was initially compiled by NICEATM and U.S. EPA’s CCTE. Briefly, LD50 data were collected from rat acute oral systemic toxicity tests, including limit tests, ranges/confidence intervals, and discrete LD50 values. The full data set included 21,200 LD50 entries for 15,688 substances. […] Data were reviewed to ensure that LD50 values with obvious errors in the extracted data such as unit conversion errors (e.g., comma and decimal separator misplacements) were either fixed or removed. After this review, 16,209 LD50 values remained. Many of the chemicals represented had multiple LD50 entries, requiring that a single representative value per Chemical Abstracts Service Registry Number (CASRN) identifier be defined to facilitate modeling efforts. Based on ATWG feedback and to define the representative LD50 as a protective value while accounting for the distribution across multiple LD50s, the median of the lowest quartile was computed using only discrete LD50 values (omitting limit test data and range and confidence interval data). A detailed summary of the data compilation is available online on the NICEATM webpage dedicated to the collaborative modeling project (NTP 2020).
[…][…] For categorical designations, limit test and range/confidence interval LD50 data were integrated wherever possible. As such, the number of chemicals with end point values/calls varies across the modeling end points (Table 3) based on whether chemicals had representative LD50 values and/or other data. If a chemical had both, the representative value was used to determine categorical calls rather than limit test data. Some data were useable only for certain end points and categories depending on the thresholds. For example, ranges that spanned multiple hazard categories were considered only for the binary (very toxic/nontoxic) end points and omitted from rendering a determination for hazard category assignment.
[…]The final data set comprising 11,992 chemicals was split into training and evaluation sets […], respectively. This process was performed semirandomly by ordering chemicals based on the five end points (categorical and continuous LD50 values) and partitioning every fourth record into the evaluation set accordingly. This approach was taken to ensure an equivalent distribution of the LD50 values and the different hazard categories between the training and the evaluation sets without supervised sampling of the chemicals based on structures (Figure 1A). The sources of the chemical structures were also kept equivalent between the two sets, with chemical structures obtained from DSSTox, being the highest quality, representing over 75% of each set (Figure 1B).

CC(=C(CCO)SSCC1CCCO1)N(C=O)Cc1cnc(C)nc1N (stereo not drawn)
LD50: 2200 mg/kg

CC(=O)N(C)C(=O)Oc1cccc(C(C)(C)C)c1
LD50: 1000 mg/kg

CCCCCCCCOP(=O)(O)OCCC(Cl)Cl
LD50: 10300 mg/kg

CCc1c2c(nc3ccc(OC(=O)N4CCC(N5CCCCC5)CC4)cc13)-c1cc3c(c(=O)n1C2)COC(=O)[C@]3(O)CC
LD50: 867 mg/kg

NNc1ccc(N(CCO)CCO)nn1
LD50: 1800 mg/kg

O=C(O)C1C(C(=O)O)C2(Cl)C(Cl)=C(Cl)C1(Cl)C2(Cl)Cl (stereo not drawn)
LD50: 1770 mg/kg

COc1ccc(N)c([N+](=O)[O-])c1
LD50: 14100 mg/kg

C/C=C(C)/C=C/C=C(C)C
LD50: 1900 mg/kg

Oc1c(I)cc(I)c(O)c1I
LD50: 8200 mg/kg

O=S(=O)(O)c1c(Cl)c(Cl)c(Cl)c2[nH]c(C(F)(F)F)nc12
LD50: 218 mg/kg

CCOP(=O)(OCC)Oc1ccc2c(C)c(Cl)c(=O)oc2c1
LD50: 10 mg/kg

OC(Cn1cncn1)(Cn1cncn1)c1ccc(F)cc1F
LD50: 1270 mg/kg

COc1cc(C(=O)OCCCN(C)CCN(C)CCCOC(=O)c2cc(OC)c(OC)c(OC)c2)cc(OC)c1OC
LD50: 2550 mg/kg

Cc1cc(CCN2CCN(c3cccc(Cl)c3)CC2)n[nH]1
LD50: 570 mg/kg

CCS(=O)(=O)CCO
LD50: 18000 mg/kg

Nc1ccc(Cl)cc1[N+](=O)[O-]
LD50: 400 mg/kg

C[C@H](CCc1ccccc1)NC[C@H](O)c1ccc(O)c(C(N)=O)c1
LD50: 1030 mg/kg

CCOC(=O)CS
LD50: 178 mg/kg

CN(C)c1ccc(C=Cc2ccccc2)cc1
LD50: 50 mg/kg

CCCCN(COC(C)=O)N=O
LD50: 1500 mg/kg

CCOP(=S)(OCC)SCC
LD50: 80 mg/kg

CC(C)(c1cc(Cl)c(O)c(Cl)c1)c1cc(Cl)c(O)c(Cl)c1
LD50: 7430 mg/kg

O=C(O)C(Cl)(Cl)CCl
LD50: 2460 mg/kg

CO[C@H]1C=CC2=CCN3CCC4=C(CC(=O)OC4)[C@]23C1
LD50: 510 mg/kg

CCCCNc1ccccc1
LD50: 1620 mg/kg

CCN1C=CC(=C2C(=O)c3ccccc3C2=O)C=C1
LD50: 330 mg/kg

C(=N\C(/N=C/c1ccco1)c1ccco1)/c1ccco1
LD50: 400 mg/kg

ClCc1cccc(Oc2ccccc2)c1
LD50: 1220 mg/kg

C[C@@H]1O[C@@H](O[C@@H]2C=C3CC[C@@H]4[C@H](CC[C@]5(C)[C@@H](c6ccc(=O)oc6)CC[C@]45O)[C@@]3(C)CC2)[C@H](O)[C@H](O)[C@H]1O
LD50: 56 mg/kg

CCOCN(C(=O)CO)c1c(C)cccc1CC
LD50: 2400 mg/kg

CCCCc1ccc2c(S(=O)(=O)O)cc(CCCC)cc2c1
LD50: 1250 mg/kg

CN(SSN(C)C(=O)ON=C1CSCCS1)C(=O)ON=C1CSCCS1
LD50: 160 mg/kg

Cc1onc(-c2c(Cl)cccc2Cl)c1C(=O)N[C@@H]1C(=O)N2[C@@H]1SC(C)(C)[C@@H]2C(=O)O
LD50: 3580 mg/kg

COc1cc(OC)cc(OCCO)c1
LD50: 4050 mg/kg

C#CCCC#CC#CCCCCO
LD50: 250 mg/kg

O=C1CCc2cccc3c2N1CC3
LD50: 321 mg/kg

FC(F)(F)c1nc2c(Br)cc(Br)cc2[nH]1
LD50: 5.98 mg/kg

CC(=O)OCCC(Cl)C(C)=O (stereo not drawn)
LD50: 2050 mg/kg

CN(C)C(=O)N(C)N=O
LD50: 240 mg/kg

CC1(C(=O)O)C2CCC(O2)C1C(=O)O (stereo not drawn)
LD50: 50 mg/kg

CCOP(=O)(OCC)Oc1cc(C)n(CC)c(=O)c1
LD50: 1.62 mg/kg

Clc1ccc(C(Cl)(Cl)c2ccc(Cl)cc2)cc1
LD50: 168 mg/kg

ClCc1ccccc1CCl
LD50: 2260 mg/kg

CC[N+]1(C)CCCC(OC(=O)C(O)(c2ccccc2)c2ccccc2)C1 (stereo not drawn)
LD50: 916 mg/kg and 850 mg/kg

CCCCCC(=O)c1ccc(N)cc1
LD50: 216 mg/kg

CCOC(CC(OCC)OCC)OCC
LD50: 1610 mg/kg

Oc1cc(Cl)c(Cl)cc1Cl
LD50: 1620 mg/kg

COP(=O)(OC)OC(Cl)C(Cl)(Br)Br (stereo not drawn)
LD50: 49 mg/kg

CSC(C)=NOC(=O)N(C)SN(C(C)C)P1(=S)OCCCO1
LD50: 600 mg/kg

CN=C(O)O/N=C1/SCOC1(C)C
LD50: 2 mg/kg

O=C1C(=NNc2ccccc2S(=O)(=O)O)C(S(=O)(=O)O)=Cc2cc(S(=O)(=O)O)cc(Nc3nc(Cl)nc(Nc4ccccc4)n3)c21
LD50: 6730 mg/kg

Cc1cccc(C(C)c2ccccc2)c1C (stereo not drawn)
LD50: 2050 mg/kg

CN(N=O)c1cccnc1
LD50: 10 mg/kg

O=[N+]([O-])c1ccc(O/N=C/c2cc(Br)c(O)c(Br)c2)c([N+](=O)[O-])c1
LD50: 1100 mg/kg

C=CC(=O)OCCCCOC(=O)C=C
LD50: 587 mg/kg

C=CC(=O)NCO
LD50: 474 mg/kg

CC(C)=CCN(CC=C(C)C)CCC(C)(C(N)=O)c1cccc2ccccc12 (stereo not drawn)
LD50: 353 mg/kg

CNc1c(Cl)cc(C(=O)NC2CC2)cc1Cl
LD50: 262 mg/kg

CN(C)c1ccc(N=NS(=O)(=O)O)cc1
LD50: 60 mg/kg

CN1CN(CCO)CSC1=S
LD50: 1000 mg/kg

CC(C)(C)C(=O)COc1ccc(Cl)cc1
LD50: 4650 mg/kg

C=C1/C(=C\C=C2/CCC[C@]3(C)[C@@H]([C@H](C)CCCC(C)(C)O)CC[C@@H]23)C[C@@H](O)C[C@@H]1O
LD50: 0.62 mg/kg

Cc1cc(O)c(C(C)(C)C)cc1C
LD50: 1030 mg/kg

CC[N+]1(C)[C@@H]2C[C@@H](OC(=O)[C@H](CO)c3ccccc3)C[C@H]1[C@@H]1O[C@@H]12 (stereo partly drawn)
LD50: 2250 mg/kg

CCCc1cc(C(N)=S)ccn1
LD50: 1320 mg/kg

CC(C)(OO)c1cccc(C(C)(C)OO)c1
LD50: 1500 mg/kg

CCOP(=S)(OCC)SC1CCOC1=O (stereo not drawn)
LD50: 1000 mg/kg

Nc1ccc(Oc2ccc(C(c3ccc(Oc4ccc(N)cc4)cc3)(C(F)(F)F)C(F)(F)F)cc2)cc1
LD50: 1340 mg/kg

CC(C)(C)C(=O)CCl
LD50: 550 mg/kg

CCCCN(CCCC)CC(C)O (stereo not drawn)
LD50: 1990 mg/kg

COC1CC(=C(c2cccs2)c2cccs2)C[N+](C)(C)C1 (stereo not drawn)
LD50: 1210 mg/kg

OCCOCCOCCN1CCN(C(c2ccccc2)c2ccc(Cl)cc2)CC1 (stereo not drawn)
LD50: 920 mg/kg

O=C(O)C(=O)C(O)=C(O)O
LD50: 6000 mg/kg

CCOC(C(=O)O)(c1ccccc1)c1ccccc1
LD50: 1000 mg/kg

CCCCC(=O)OC1CCC(N2CCCCC2)CC1 (stereo not drawn)
LD50: 1510 mg/kg

CCC(C)C1(CC)C(O)=NC(=O)N=C1O (stereo not drawn)
LD50: 78 mg/kg

CCC(C(=O)c1ccc2[nH]c(=O)ccc2c1)N1CCN(c2cccc(Cl)c2)CC1 (stereo not drawn)
LD50: 500 mg/kg

CCCN1C[C@H](CSC)C[C@@H]2c3cccc4[nH]cc(c34)C[C@H]21
LD50: 8.4 mg/kg

CCCCNC(C)c1ccccc1 (stereo not drawn)
LD50: 360 mg/kg

CCOC(=O)C(Br)CBr (stereo not drawn)
LD50: 240 mg/kg

O=C(OCC(Cl)(Cl)Cl)c1ccco1
LD50: 600 mg/kg

Cc1ccnc(N)c1
LD50: 200 mg/kg

Nc1nc(=S)ss1
LD50: 3050 mg/kg

CCOC(=O)C1=C(C)NC(C)=C(C(=O)OC)C1c1cccc(Cl)c1Cl (stereo not drawn)
LD50: 1050 mg/kg

CNC(=O)CSP(O)(=S)OC (stereo not drawn)
LD50: 1500 mg/kg

N#CSCCSC#N
LD50: 50 mg/kg

CC(CC(C#N)(c1ccccc1)C(C)C)N(C)C (stereo not drawn)
LD50: 250 mg/kg

CN(CC(=O)N1CCOCC1)Cc1c(Cl)cccc1NC(=O)c1ccccc1
LD50: 4200 mg/kg

O=NN(CCF)C(=O)NC1CCCCC1
LD50: 18.5 mg/kg

CC(=O)OCCO
LD50: 8250 mg/kg

COc1cc(O)c(C(=O)c2ccccc2)cc1S(=O)(=O)O
LD50: 3530 mg/kg

COc1ccc(N)c(S(=O)(=O)O)c1
LD50: 10000 mg/kg

OCCCC(O)CO (stereo not drawn)
LD50: 7800 mg/kg

C=CCOC(=O)CC#N
LD50: 160 mg/kg

NC(=O)ON=C1CSCCS1
LD50: 52 mg/kg

CCN(CC)CCNC(=O)c1ccc(NS(C)(=O)=O)cc1
LD50: 3200 mg/kg

CBr
LD50: 214 mg/kg

C[C@@H]1CCC[C@H](C)N1CCCC(O)(c1ccccc1)c1ccccn1 (stereo partly drawn)
LD50: 251 mg/kg

CO[SiH](OC)OC
LD50: 9330 mg/kg

COc1cc(C2c3cc4c(cc3C(OC3OC5COC(c6ccccc6)OC5C(O)C3O)C3COC(=O)C23)OCO4)cc(OC)c1O (stereo not drawn)
LD50: 823 mg/kg

CC(=O)OCC(C)OC(C)=O (stereo not drawn)
LD50: 13500 mg/kg

O=c1c(F)cn(C2CCCO2)c(=O)n1C1CCCO1 (stereo not drawn)
LD50: 1730 mg/kg

CC1(C)NC(=O)N(c2ccc([N+](=O)[O-])c(C(F)(F)F)c2)C1=O
LD50: 195 mg/kg

CC(Cc1ccccc1)NC(C#N)c1ccccc1 (stereo not drawn)
LD50: 37.6 mg/kg

CCN(CC)CCNc1ccc(CO)c2sc3ccccc3c(=O)c12
LD50: 980 mg/kg

C=CC(C)(O)CCC=C(C)C (stereo not drawn)
LD50: 2790 mg/kg

Cc1ccc(S(=O)(=O)NN)cc1
LD50: 283 mg/kg

CN1CC(CCN2CC=C(c3ccccc3)CC2)OC1=O (stereo not drawn)
LD50: 340 mg/kg

Cc1ccc(S(=O)(=O)/C=C/C#N)cc1
LD50: 1440 mg/kg

COCCNC(=O)CSP(=S)(OC)OC
LD50: 420 mg/kg

O=S1(=O)CCC(NNc2ccccc2)C1 (stereo not drawn)
LD50: 2380 mg/kg

CCCCCCCCCCCCCCOCCOCCOCCOCCOCCOCCOCCO
LD50: 2600 mg/kg

CC(C)OC(=O)C(C(=O)OC(C)C)=C1SC=CS1
LD50: 2060 mg/kg

CCCCC(CC)CNCC(C)(N)CNCC(CC)CCCC (stereo not drawn)
LD50: 800 mg/kg

ClCCOCCCl
LD50: 75 mg/kg

Cc1cc(C2(c3ccc(O)c(C)c3)C(=O)Nc3ccccc32)ccc1O
LD50: 520 mg/kg

CNCCON=C1c2ccccc2CCc2ccccc21
LD50: 860 mg/kg

CC(=O)OCC[N+](C)(C)C
LD50: 2500 mg/kg

NNC(=O)CSc1cc(Oc2ccccc2)ncn1
LD50: 220 mg/kg

CC/C(=C(/CC)c1ccc(OP(=O)(O)O)cc1)c1ccc(OP(=O)(O)O)cc1
LD50: 3000 mg/kg

COc1cccc([C@]2(O)CCCC[C@H]2CN(C)C)c1 (single isomer, unassigned)
LD50: 228 mg/kg

CN(N=O)C(C)(C)c1ccccc1
LD50: 2100 mg/kg

CC(=O)C1OC1(C)C (stereo not drawn)
LD50: 1610 mg/kg
